Results from publication PMC11788587, “Validating Low‐Dose Iohexol as a Marker for Glomerular Filtration Rate by In Vitro and In Vivo Studies” (Clinical and Translational Science, 2025).

How the values were obtained:
[1] = target: T1, hOCT1 (Homo sapiens, UniProt O15245); experiment: Substrate assessment: iohexol uptake in 293 cells expressing hOCT1 vs control; type: in vitro ADME; details: 10 μM iohexol, median (95% CI)
T1 construct: expressed in transfected cells; host or cells: HEK-293 (293) cells, pEBTetD plasmid, doxycycline-induced
T1 sequence (O15245 1-554): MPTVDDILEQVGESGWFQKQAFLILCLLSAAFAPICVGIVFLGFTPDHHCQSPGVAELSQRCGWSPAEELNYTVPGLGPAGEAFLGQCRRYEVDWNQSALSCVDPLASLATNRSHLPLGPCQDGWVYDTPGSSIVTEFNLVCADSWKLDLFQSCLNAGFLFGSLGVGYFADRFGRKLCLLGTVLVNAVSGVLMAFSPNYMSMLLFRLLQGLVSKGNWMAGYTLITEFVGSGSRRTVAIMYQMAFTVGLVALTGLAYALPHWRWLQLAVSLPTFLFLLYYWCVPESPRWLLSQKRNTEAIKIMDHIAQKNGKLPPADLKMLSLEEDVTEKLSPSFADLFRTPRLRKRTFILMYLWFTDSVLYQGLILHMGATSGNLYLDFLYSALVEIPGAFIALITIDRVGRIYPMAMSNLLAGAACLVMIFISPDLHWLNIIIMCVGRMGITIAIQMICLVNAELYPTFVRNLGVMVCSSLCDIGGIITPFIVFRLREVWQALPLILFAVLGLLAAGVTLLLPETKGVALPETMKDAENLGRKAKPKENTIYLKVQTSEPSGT
Excerpt: (§1) We characterized the inhibitory potential of iohexol on major drug transporters recommended by regulatory agencies, which were previously assessed in a clinical transporter phenotyping cocktail study. These transporters include hOAT1, hOAT3, hOCT1, hOCT2, hMATE1, hMATE2K, human organic anion transporter polypeptides (hOATP)1B1, hOATP1B3, and human multidrug resistance protein (hMDR)1. Additionally, we investigated whether iohexol is a substrate for any of the renal transporters among these, including hOAT1/3, hOCT1/2, and hMATE1/2K. Cell‐based uptake assays were used to assess the activities of hOAT1/3, hOCT1/2, hMATE1/2K, and hOATP1B1/1B3. Inside‐out membrane vesicle uptake assays were used to evaluate the activity of hMDR1.
(§2) For substrate assessments, iohexol was incubated with stably transfected HEK‐293 cells expressing one of the following transporters: hOAT1, hOAT3, hOCT1, hOCT2, hMATE1, or hMATE2K, as well as with control cells lacking transporter expression. Stably transfected cell lines containing pEBTetD plasmids with wild‐type human transporter cDNAs were generated as previously described. Transporter expression was induced by adding 1 μg/mL doxycycline to the growth medium for at least 20 h. Iohexol would be considered a substrate for these transporters if: (1) the ratio of iohexol uptake in cells expressing the transporter to that in control cells was ≥ 2, and (2) a known inhibitor of the transporter reduced iohexol uptake to ≤ 50% at concentrations ≥ 10 times its inhibition constant or half‐maximal inhibitory concentration.
(§3) Uptake assays were performed using stably transfected 293 cells, with or without the expression of one of the following transporters: hOAT1, hOAT3, hOCT1, hOCT2, hMATE1, or hMATE2K, as previously described.^1
(§4) For the substrate assessment, cells were incubated with 10 µM iohexol for 10 minutes and 30 minutes for each transporter. Inhibition assays were performed using specific standard substrates for each transporter: 10 µM para-aminohippuric acid (PAH) for hOAT1, 3 µM estrone-3-sulfate (E3S) for hOAT3, 50 µM metformin for hOCT1, 5 µM metformin for hOCT2, and 3 µM 1-methyl-4-phenylpyridinium (MPP+) for hMATE1 and hMATE2K. […]
(§5) R version 4.2.1 (R Foundation for Statistical Computing, Vienna, Austria) was used for statistical evaluations and data visualization. The data analysis approach for the in vitro study was detailed by Hsin CH et al..^1 In brief, for transport assays, the initial uptake rate was calculated by normalizing the substrate concentration to both the protein concentration and the incubation time for each dish or well. The transporter-mediated uptake rate (net uptake) was determined by performing an element-wise subtraction of uptake rates from different conditions. […]

[2] = target: T2, hMATE1 (Homo sapiens, UniProt Q96FL8); experiment: Substrate assessment: iohexol uptake in 293 cells expressing hMATE1 vs control; type: in vitro ADME; details: 10 μM iohexol, median (95% CI)
T2 construct: expressed in transfected cells; host or cells: HEK-293 (293) cells, pEBTetD plasmid, doxycycline-induced
T2 sequence (Q96FL8 1-570): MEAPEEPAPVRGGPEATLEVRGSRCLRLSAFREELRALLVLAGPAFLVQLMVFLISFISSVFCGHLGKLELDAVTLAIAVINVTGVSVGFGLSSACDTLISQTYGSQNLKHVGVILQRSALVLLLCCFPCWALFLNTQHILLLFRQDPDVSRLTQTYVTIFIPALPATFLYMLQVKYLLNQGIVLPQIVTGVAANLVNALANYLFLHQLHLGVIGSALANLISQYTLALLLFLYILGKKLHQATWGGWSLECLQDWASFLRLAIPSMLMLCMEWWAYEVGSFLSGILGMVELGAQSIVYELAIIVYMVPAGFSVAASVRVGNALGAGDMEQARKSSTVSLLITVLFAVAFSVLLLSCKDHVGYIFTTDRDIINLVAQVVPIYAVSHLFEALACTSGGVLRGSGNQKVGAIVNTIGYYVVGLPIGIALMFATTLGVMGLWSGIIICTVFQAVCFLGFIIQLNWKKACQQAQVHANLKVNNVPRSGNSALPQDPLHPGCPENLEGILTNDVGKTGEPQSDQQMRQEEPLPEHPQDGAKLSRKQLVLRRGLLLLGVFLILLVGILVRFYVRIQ
Excerpt: as §1, §2, §3, §4, §5

## CC(=O)N(CC(O)CO)c1c(I)c(C(=O)NCC(O)CO)c(I)c(C(=O)NCC(O)CO)c1I (centres unmarked) [iohexol]
[1]; 10 minutes
  Differences in intracellular accumulation (expression on minus off): 0.16 (-1.8 to 0.79) pmol/mg protein
  Uptake ratio (transporter-expressing vs non-expressing cells): 1 (0.84 to 1.1)
[1]; 30 minutes
  Differences in intracellular accumulation (expression on minus off): -0.51 (-1.1 to -0.15) pmol/mg protein
  Uptake ratio (transporter-expressing vs non-expressing cells): 0.89 (0.79 to 0.97)
[2]; 10 minutes
  Differences in intracellular accumulation (expression on minus off): 0.36 (-1.2 to 1.7) pmol/mg protein
  Uptake ratio (transporter-expressing vs non-expressing cells): 1.1 (0.84 to 1.2)
[2]; 30 minutes
  Differences in intracellular accumulation (expression on minus off): -0.67 (-1.6 to 0.61) pmol/mg protein
  Uptake ratio (transporter-expressing vs non-expressing cells): 0.92 (0.78 to 1.1)
